Test results taken from publication PMC11791882.

Assay: on-resin side-chain lactamisation Lys(NH2)/Glu(COOH) after Pd(0)/PhSiH3 removal of Alloc/OAll; DIC 30 eq + OxymaPure 30 eq; ProTide resin 0.19 mmol/g, ca. 300 mL DCM, 2 days
Conditions: the molecule shown is the open-chain precursor, 57-membered ring, scale: % HPLC purity of cyclic product

Substance	ring closure, conversion by HPLC (48.0 h)	ring closure, conversion by HPLC (168.0 h)
Fmoc-Thr(tBu)-Lys(NH2)-Asn(Trt)-His(Trt)-Gln(Trt)-Gly-Leu-Gly-Arg(Pbf)-Gly-Asp(OtBu)-Gln(Trt)-Thr(tBu)-Thr(tBu)-Pro-Ala-Gln(Trt)-Glu(COOH)-Ala-Gln(Trt)-Thr(tBu)-Gly-Trp(Boc)-Val-Gln(Trt)-Asn(Trt)-NH-ProTide resin	80.8	–
Fmoc-Thr(tBu)-Lys(NH2)-Asn(Trt)-His(Trt)-Gln(Trt)-Gly-Pro-Gly-Arg(Pbf)-Gly-Asp(OtBu)-Gln(Trt)-Thr(tBu)-Thr(tBu)-Leu-Ala-Gln(Trt)-Glu(COOH)-Ala-Gln(Trt)-Thr(tBu)-Gly-Trp(Boc)-Val-Gln(Trt)-Asn(Trt)-NH-ProTide resin	–	0
Fmoc-Thr(tBu)-Lys(NH2)-Asn(Trt)-His(Trt)-Gln(Trt)-Gly-Pro-Gly-Arg(Pbf)-Gly-Asp(OtBu)-Gln(Trt)-Thr(tBu)-Thr(tBu)-Pro-Ala-Gln(Trt)-Glu(COOH)-Ala-Gln(Trt)-Thr(tBu)-Gly-Trp(Boc)-Val-Gln(Trt)-Asn(Trt)-NH-ProTide resin	88.6	–
Fmoc-Thr(tBu)-Lys(NH2)-Asn(Trt)-His(Trt)-Gln(Trt)-Ser(tBu)-Ala-Gln(Trt)-Arg(Pbf)-Gly-Asp(OtBu)-Leu-Thr(tBu)-Thr(tBu)-Pro-Ala-Gln(Trt)-Glu(COOH)-Ala-Gln(Trt)-Thr(tBu)-Gly-Trp(Boc)-Val-Gln(Trt)-Asn(Trt)-NH-ProTide resin	73.9	–
